Values of other authors, collected in patent publication US20110257090A1, “SOLUTIONS FOR VOLUME THERAPY” (FRESENIUS KABI DEUTSCHLAND GMBH, priority 2008, published 2011).

Tested on: cultured mammalian cells
Details: long-term studies

O=S(=O)(O)CCN(CCO)CCO [BES, N,N-bis(2-hydroxyethyl)-2-aminoethanesulfonic acid]
toxicity to cultured mammalian cells: non-toxic
